Data taken from patent US20230295197A1, “STAT5 and STAT6 Degraders and Uses Thereof” (REGENTS OF THE UNIVERSITY OF MICHICAN, priority 2022, published 2023).
Where two headings read alike, the source gives them in different places.

Biological target: T1, STAT6 (Homo sapiens, UniProt P42226)
T1 construct: endogenous in cells; host or cells: MOLM-16, KU-812, SKNO1, MB231, L1236
T1 sequence (P42226 1-847): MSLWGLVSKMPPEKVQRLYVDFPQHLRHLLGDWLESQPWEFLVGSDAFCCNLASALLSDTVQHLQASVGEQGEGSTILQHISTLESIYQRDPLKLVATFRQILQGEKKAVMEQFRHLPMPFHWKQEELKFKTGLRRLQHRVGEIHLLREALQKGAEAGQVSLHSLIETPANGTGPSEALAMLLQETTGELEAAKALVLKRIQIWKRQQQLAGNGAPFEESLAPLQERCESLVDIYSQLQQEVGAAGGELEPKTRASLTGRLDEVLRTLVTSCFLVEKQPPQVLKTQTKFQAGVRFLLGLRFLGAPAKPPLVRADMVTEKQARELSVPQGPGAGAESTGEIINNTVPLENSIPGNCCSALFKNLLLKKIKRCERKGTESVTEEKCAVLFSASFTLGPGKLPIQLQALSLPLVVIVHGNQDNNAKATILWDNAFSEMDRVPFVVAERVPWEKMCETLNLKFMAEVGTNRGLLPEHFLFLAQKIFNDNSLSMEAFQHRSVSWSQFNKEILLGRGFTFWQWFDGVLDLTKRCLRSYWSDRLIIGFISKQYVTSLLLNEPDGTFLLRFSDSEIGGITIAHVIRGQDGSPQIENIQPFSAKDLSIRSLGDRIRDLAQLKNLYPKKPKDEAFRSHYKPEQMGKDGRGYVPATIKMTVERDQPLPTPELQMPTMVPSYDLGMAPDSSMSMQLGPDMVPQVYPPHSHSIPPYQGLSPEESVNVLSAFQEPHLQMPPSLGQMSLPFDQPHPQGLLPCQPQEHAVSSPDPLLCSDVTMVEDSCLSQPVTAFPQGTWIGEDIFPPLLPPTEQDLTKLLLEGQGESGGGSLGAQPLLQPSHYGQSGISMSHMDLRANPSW
Assay: Immunoblotting (Western blot) analysis of STAT6 degradation efficiency of degraders in treated cells
Format: cell-based
Outline: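 Treatment of cells with degraders at stated concentrations and exposure times comes first. Lysates are then equalised for total protein by BCA, and the proteins are separated, transferred and immunostained for STAT6 or STAT5 alongside GAPDH. Signal is quantified from infrared fluorescence.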

[1] = MOLM-16 cells, class symbols, read-out: DC50 S6 MOLM-16
[2] = L1236 cells, read-out: DC50 S6 L1236
[3] = MB231 cells, read-out: DC50 S6 MB231

DC50 (MOLM-16 cells, numeric bound, read-out: DC50 S6 MOLM-16)	SMILES	DC50 [1]	DC50 [2]	DC50 [3]
	CC(C)(C)[C@H](NC(=O)c1cc2cc(C(F)(F)P(=O)(O)O)ccc2s1)C(=O)N1Cc2cc(OCC(=O)NCCCCC#Cc3ccc4c(c3)C(=O)N(C3CCC(=O)NC3=O)C4=O)ccc2C[C@H]1C(=O)N1CCC[C@H](c2ccccc2)C1 (stereo partly drawn) [Compound 556, ((2-(((2S)-1-((3S)-7-(2-((6-(2-(2,6-dioxopiperidin-3-yl)-1,3-dioxoisoindolin-5-yl)hex-5-yn-1-yl)amino)-2-oxoethoxy)-3-((R)-3-phenylpiperidine-1-carbonyl)-3,4-dihydroisoquinolin-2(1H)-yl)-3,3-dimethyl-1-oxobutan-2-yl)carbamoyl)benzo[b]thiophen-5-yl)difluoromethyl)phosphonic acid]	> 10 µM		
	CC(C)(C)[C@H](NC(=O)c1cc2cc(C(F)(F)P(=O)(O)O)ccc2s1)C(=O)N1C[C@@H](OCCCCCCCCCC#Cc2cccc3c2CN(C2CCC(=O)NC2=O)C3=O)C[C@H]1C(=O)N1CCO[C@H](c2ccccc2)C1 (stereo partly drawn) [Compound 584, ((2-(((2S)-1-((2S,4S)-4-((11-(2-(2,6-dioxopiperidin-3-yl)-1-oxoisoindolin-4-yl)undec-10-yn-1-yl)oxy)-2-((R)-2-phenylmorpholine-4-carbonyl)pyrrolidin-1-yl)-3,3-dimethyl-1-oxobutan-2-yl)carbamoyl)benzo[b]thiophen-5-yl)difluoromethyl)phosphonic acid]	0.1 to 1 µM	> 10 µM	
	Cc1ncsc1-c1ccc(CNC(=O)[C@@H]2C[C@@H](O)CN2C(=O)[C@@H](NC(=O)CCCCCCNC(=O)CO[C@@H]2C[C@@H](C(=O)N(C)c3ccc(Br)cc3)N(C(=O)[C@@H](NC(=O)c3cc4cc(C(F)(F)P(=O)(O)O)ccc4s3)C(C)(C)C)C2)C(C)(C)C)cc1 [Compound 418, ((2-(((S)-1-((2S,4R)-2-((4-bromophenyl)(methyl)carbamoyl)-4-(2-((7-(((S)-1-((2S,4R)-4-hydroxy-2-((4-(4-methylthiazol-5-yl)benzyl)carbamoyl)pyrrolidin-1-yl)-3,3-dimethyl-1-oxobutan-2-yl)amino)-7-oxoheptyl)amino)-2-oxoethoxy)pyrrolidin-1-yl)-3,3-dimethyl-1-oxobutan-2-yl)carbamoyl)benzo[b]thiophen-5-yl)difluoromethyl)phosphonic acid]		> 10 µM	> 10 µM
	Cc1ncsc1-c1ccc([C@H](C)NC(=O)[C@@H]2C[C@@H](O)CN2C(=O)[C@@H](NC(=O)CCCCCCCCCNC(=O)COc2ccc3c(c2)CN(C(=O)[C@@H](NC(=O)c2cc4cc(C(F)(F)P(=O)(O)O)ccc4s2)C(C)(C)C)[C@H](C(=O)N2CCO[C@H](c4ccccc4)C2)C3)C(C)(C)C)cc1 [Compound 469, (difluoro(2-(((S)-1-((S)-7-(2-((10-(((S)-1-((2S,4R)-4-hydroxy-2-(((S)-1-(4-(4-methylthiazol-5-yl)phenyl)ethyl)carbamoyl)pyrrolidin-1-yl)-3,3-dimethyl-1-oxobutan-2-yl)amino)-10-oxodecyl)amino)-2-oxoethoxy)-3-((R)-2-phenylmorpholine-4-carbonyl)-3,4-dihydroisoquinolin-2(1H)-yl)-3,3-dimethyl-1-oxobutan-2-yl)carbamoyl)benzo[b]thiophen-5-yl)methyl)phosphonic acid]	> 10 µM	> 10 µM	
	CC(C)(C)[C@H](NC(=O)c1cc2cc(C(F)(F)P(=O)(O)O)ccc2s1)C(=O)N1CCN(C(=O)CC(=O)NCCCCC#Cc2cccc3c2C(=O)N(C2CCC(=O)NC2=O)C3=O)C[C@H]1C(=O)N1CCC[C@H](c2ccccc2)C1 (stereo partly drawn) [Compound 527, ((2-(((2S)-1-((2S)-4-(3-((6-(2-(2,6-dioxopiperidin-3-yl)-1,3-dioxoisoindolin-4-yl)hex-5-yn-1-yl)amino)-3-oxopropanoyl)-2-((R)-3-phenylpiperidine-1-carbonyl)piperazin-1-yl)-3,3-dimethyl-1-oxobutan-2-yl)carbamoyl)benzo[b]thiophen-5-yl)difluoromethyl)phosphonic acid]	> 10 µM		
> 0.3 µM	CC(C)(C)[C@H](NC(=O)c1cc2cc(C(F)(F)P(=O)(O)O)ccc2s1)C(=O)N1C[C@H](OCCCCCC#Cc2cccc3c2CN(C2CCC(=O)NC2=O)C3=O)C[C@H]1C(=O)N1CCC[C@H](c2ccccc2)C1 (stereo partly drawn) [Compound 602, ((2-(((2S)-1-((2S,4R)-4-((7-(2-(2,6-dioxopiperidin-3-yl)-1-oxoisoindolin-4-yl)hept-6-yn-1-yl)oxy)-2-((R)-3-phenylpiperidine-1-carbonyl)pyrrolidin-1-yl)-3,3-dimethyl-1-oxobutan-2-yl)carbamoyl)benzo[b]thiophen-5-yl)difluoromethyl)phosphonic acid]			
	Cc1ncsc1-c1ccc([C@H](C)NC(=O)[C@@H]2C[C@@H](O)CN2C(=O)[C@@H](NC(=O)CCNC(=O)CO[C@H]2C[C@@H](C(=O)N3CCO[C@H](c4ccccc4)C3)N(C(=O)[C@@H](NC(=O)c3cc4cc(C(F)(F)P(=O)(O)O)ccc4s3)C(C)(C)C)C2)C(C)(C)C)cc1 [Compound 426, (difluoro(2-(((S)-1-((2S,4S)-4-(2-((3-(((S)-1-((2S,4R)-4-hydroxy-2-(((S)-1-(4-(4-methylthiazol-5-yl)phenyl)ethyl)carbamoyl)pyrrolidin-1-yl)-3,3-dimethyl-1-oxobutan-2-yl)amino)-3-oxopropyl)amino)-2-oxoethoxy)-2-((R)-2-phenylmorpholine-4-carbonyl)pyrrolidin-1-yl)-3,3-dimethyl-1-oxobutan-2-yl)carbamoyl)benzo[b]thiophen-5-yl)methyl)phosphonic acid]	> 10 µM	> 10 µM	
	Cc1cc([C@H](C(=O)N2C[C@H](O)C[C@H]2C(=O)N[C@@H](CC(=O)NCCOCCOCCOCCNC(=O)CCN(C(=O)[C@@H]2CCCN2C(=O)[C@@H](NC(=O)c2cc3cc(C(F)(F)P(=O)(O)O)ccc3s2)C(C)(C)C)c2ccc(Br)cc2)c2ccc(-c3scnc3C)cc2)C(C)C)on1 [Compound 409, ((2-(((S)-1-((S)-2-((4-bromophenyl)((S)-1-((2S,4R)-4-hydroxy-1-((R)-3-methyl-2-(3-methylisoxazol-5-yl)butanoyl)pyrrolidin-2-yl)-3-(4-(4-methylthiazol-5-yl)phenyl)-1,5,19-trioxo-9,12,15-trioxa-2,6,18-triazahenicosan-21-yl)carbamoyl)pyrrolidin-1-yl)-3,3-dimethyl-1-oxobutan-2-yl)carbamoyl)benzo[b]thiophen-5-yl)difluoromethyl)phosphonic acid]			> 10 µM
	CC(C)(C)[C@H](NC(=O)c1cc2cc(C(F)(F)P(=O)(O)O)ccc2s1)C(=O)N1CCN(C(=O)CC(=O)NCCCC#Cc2ccc3c(c2)C(=O)N(C2CCC(=O)NC2=O)C3=O)C[C@H]1C(=O)N1CCC[C@H](c2ccccc2)C1 (stereo partly drawn) [Compound 526, ((2-(((2S)-1-((2S)-4-(3-((5-(2-(2,6-dioxopiperidin-3-yl)-1,3-dioxoisoindolin-5-yl)pent-4-yn-1-yl)amino)-3-oxopropanoyl)-2-((R)-3-phenylpiperidine-1-carbonyl)piperazin-1-yl)-3,3-dimethyl-1-oxobutan-2-yl)carbamoyl)benzo[b]thiophen-5-yl)difluoromethyl)phosphonic acid]	> 10 µM		
	CC(C)(C)[C@H](NC(=O)c1cc2cc(C(F)(F)P(=O)(O)O)ccc2s1)C(=O)N1CCN(C(=O)CC(=O)NCCCCCC#Cc2ccc3c(c2)C(=O)N(C2CCC(=O)NC2=O)C3=O)C[C@H]1C(=O)N1CCC[C@H](c2ccccc2)C1 (stereo partly drawn) [Compound 530, ((2-(((2S)-1-((2S)-4-(3-((7-(2-(2,6-dioxopiperidin-3-yl)-1,3-dioxoisoindolin-5-yl)hept-6-yn-1-yl)amino)-3-oxopropanoyl)-2-((R)-3-phenylpiperidine-1-carbonyl)piperazin-1-yl)-3,3-dimethyl-1-oxobutan-2-yl)carbamoyl)benzo[b]thiophen-5-yl)difluoromethyl)phosphonic acid]	> 10 µM		
	Cc1ncsc1-c1ccc([C@H](C)NC(=O)[C@@H]2C[C@@H](O)CN2C(=O)[C@@H](NC(=O)CCCCCCCNC(=O)COc2ccc3c(c2)CN(C(=O)[C@@H](NC(=O)c2cc4cc(C(F)(F)P(=O)(O)O)ccc4s2)C(C)(C)C)[C@H](C(=O)N2CCO[C@H](c4ccccc4)C2)C3)C(C)(C)C)cc1 [Compound 467, (difluoro(2-(((S)-1-((S)-7-(2-((8-(((S)-1-((2S,4R)-4-hydroxy-2-(((S)-1-(4-(4-methylthiazol-5-yl)phenyl)ethyl)carbamoyl)pyrrolidin-1-yl)-3,3-dimethyl-1-oxobutan-2-yl)amino)-8-oxooctyl)amino)-2-oxoethoxy)-3-((R)-2-phenylmorpholine-4-carbonyl)-3,4-dihydroisoquinolin-2(1H)-yl)-3,3-dimethyl-1-oxobutan-2-yl)carbamoyl)benzo[b]thiophen-5-yl)methyl)phosphonic acid]	> 10 µM	> 10 µM	
